Measured values: PMC4726324, “Rational steering of insulin binding specificity by intra-chain chemical crosslinking” (Scientific Reports, 2016)
Like-named read-outs stand apart in the source and are kept apart here.

Settings: triazole bond
[1] = the molecule shown is the open-chain precursor, 17-membered ring, CuSO4/ascorbic acid, H2O/tBuOH 2:1, 0.08 mM, 25.0 °C

H-Gly-Gly-Phe-Nva(δN3)-Thr-Pro-Prg-Thr-OH?
ring closure, yield after HPLC [1]: 36%

H-Gly-Gly-Phe-Tyr-Nva(δN3)-Pro-Prg-Thr-OH?
ring closure, yield after HPLC (the molecule shown is the open-chain precursor, 14-membered ring, CuSO4/ascorbic acid, H2O/tBuOH 2:1, 0.08 mM, 25.0 °C): 52%

H-Gly-Phe-Phe-Nva(δN3)-Thr-Pro-Prg-Thr-OH
ring closure, yield after HPLC [1]: 40%

H-Gly-Phe-Phe-Prg-Thr-Pro-Nva(δN3)-Thr-OH?
ring closure, yield after HPLC [1]: 45%

H-Gly-Phe-Phe-Tyr-Nva(δN3)-Pro-Prg-Thr-OH?
ring closure, yield after HPLC (the molecule shown is the open-chain precursor, 14-membered ring, CuSO4/ascorbic acid, H2O/tBuOH 2:1, 25.0 °C): 37%

cyclo[GB23-G-F-(NMe)A-Nva(δN3)-P-Prg-TB30]
ring closure, yield after HPLC (14-membered ring, Cu(I)/TBTA): 49%
